Test results: patent publication US8192962B2, “Processes for detecting toxic substances” (Daikin Industries, Ltd., priority 2001, dated 2012)

System: Energy system protein genes
Experiment: DNA chip mRNA expression in yeast, energy system protein genes (Table 4)
Type: cell-based, Saccharomyces cerevisiae S288C
Summary of the method: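 Value is the scanned fluorescence intensity ratio of exposed versus chemical-free cells. Log-phase S288C yeast in YPD at 25° C. received one toxic substance for two hours, dosed to slow growth without killing; Cy3/Cy5-labeled cDNA from oligo-dT-purified mRNA was hybridized to a whole-genome chip at 65° C.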

CCCCCCCCCCCCOS(=O)(=O)[O-].[Na+] [(18), sodium lauryl sulfate]
The level of expressed mRNA in the presence of chemical substance/The level of expressed mRNA in the absence of chemical substance (yeast gene YJR009C): 1.3
The level of expressed mRNA in the presence of chemical substance/The level of expressed mRNA in the absence of chemical substance (yeast gene YJR048W): 1.2
The level of expressed mRNA in the presence of chemical substance/The level of expressed mRNA in the absence of chemical substance (yeast gene YJR121W, cells incubated two hours with the chemical substance): 1.4
The level of expressed mRNA in the presence of chemical substance/The level of expressed mRNA in the absence of chemical substance (yeast gene YJR155W): 1.4
The level of expressed mRNA in the presence of chemical substance/The level of expressed mRNA in the absence of chemical substance (yeast gene YKL016C, cells incubated two hours with the chemical substance): 1.7
The level of expressed mRNA in the presence of chemical substance/The level of expressed mRNA in the absence of chemical substance (yeast gene YKL060C, cells incubated two hours with the chemical substance): 1.7
The level of expressed mRNA in the presence of chemical substance/The level of expressed mRNA in the absence of chemical substance (yeast gene YKL141W, cells incubated two hours with the chemical substance): 1.8
The level of expressed mRNA in the presence of chemical substance/The level of expressed mRNA in the absence of chemical substance (yeast gene YKL148C, cells incubated two hours with the chemical substance): 1.0
The level of expressed mRNA in the presence of chemical substance/The level of expressed mRNA in the absence of chemical substance (yeast gene YKR009C, cells incubated two hours with the chemical substance): 2.5
The level of expressed mRNA in the presence of chemical substance/The level of expressed mRNA in the absence of chemical substance (yeast gene YKR058W, cells incubated two hours with the chemical substance, 25° C., YPD medium): 1.6
The level of expressed mRNA in the presence of chemical substance/The level of expressed mRNA in the absence of chemical substance (yeast gene YKR097W): 1.5
The level of expressed mRNA in the presence of chemical substance/The level of expressed mRNA in the absence of chemical substance (yeast gene YLL041C, cells incubated two hours with the chemical substance): 1.7
The level of expressed mRNA in the presence of chemical substance/The level of expressed mRNA in the absence of chemical substance (yeast gene YLR038C, cells incubated two hours with the chemical substance): 2.1
The level of expressed mRNA in the presence of chemical substance/The level of expressed mRNA in the absence of chemical substance (yeast gene YLR044C, cells incubated two hours with the chemical substance): 0.9
The level of expressed mRNA in the presence of chemical substance/The level of expressed mRNA in the absence of chemical substance (yeast gene YLR134W, cells incubated two hours with the chemical substance): 0.8
The level of expressed mRNA in the presence of chemical substance/The level of expressed mRNA in the absence of chemical substance (yeast gene YLR258W, cells incubated two hours with the chemical substance): 2.0
The level of expressed mRNA in the presence of chemical substance/The level of expressed mRNA in the absence of chemical substance (yeast gene YLR284C, cells incubated two hours with the chemical substance): 8.1
The level of expressed mRNA in the presence of chemical substance/The level of expressed mRNA in the absence of chemical substance (yeast gene YLR295C, cells incubated two hours with the chemical substance, 25° C., YPD medium): 1.5
The level of expressed mRNA in the presence of chemical substance/The level of expressed mRNA in the absence of chemical substance (yeast gene YLR304C, cells incubated two hours with the chemical substance): 0.7
The level of expressed mRNA in the presence of chemical substance/The level of expressed mRNA in the absence of chemical substance (yeast gene YLR345W): 1.4
The level of expressed mRNA in the presence of chemical substance/The level of expressed mRNA in the absence of chemical substance (yeast gene YLR354C, cells incubated two hours with the chemical substance): 1.5
The level of expressed mRNA in the presence of chemical substance/The level of expressed mRNA in the absence of chemical substance (yeast gene YLR377C, cells incubated two hours with the chemical substance): 1.4
The level of expressed mRNA in the presence of chemical substance/The level of expressed mRNA in the absence of chemical substance (yeast gene YLR395C, cells incubated two hours with the chemical substance): 2.3
The level of expressed mRNA in the presence of chemical substance/The level of expressed mRNA in the absence of chemical substance (yeast gene YML087C): 0.8
The level of expressed mRNA in the presence of chemical substance/The level of expressed mRNA in the absence of chemical substance (yeast gene YML120C, cells incubated two hours with the chemical substance): 1.6
The level of expressed mRNA in the presence of chemical substance/The level of expressed mRNA in the absence of chemical substance (yeast gene YML129C, cells incubated two hours with the chemical substance): 1.3
The level of expressed mRNA in the presence of chemical substance/The level of expressed mRNA in the absence of chemical substance (yeast gene YMR073C, cells incubated two hours with the chemical substance): 1.2
The level of expressed mRNA in the presence of chemical substance/The level of expressed mRNA in the absence of chemical substance (yeast gene YMR118C): 1.0
The level of expressed mRNA in the presence of chemical substance/The level of expressed mRNA in the absence of chemical substance (yeast gene YMR205C, cells incubated two hours with the chemical substance): 0.5
The level of expressed mRNA in the presence of chemical substance/The level of expressed mRNA in the absence of chemical substance (yeast gene YMR261C, cells incubated two hours with the chemical substance): 1.1
The level of expressed mRNA in the presence of chemical substance/The level of expressed mRNA in the absence of chemical substance (yeast gene YMR267W, cells incubated two hours with the chemical substance, 25° C., YPD medium): 1.3
The level of expressed mRNA in the presence of chemical substance/The level of expressed mRNA in the absence of chemical substance (yeast gene YMR323W, cells incubated two hours with the chemical substance): 0.6
The level of expressed mRNA in the presence of chemical substance/The level of expressed mRNA in the absence of chemical substance (yeast gene YNL071W): 1.2
The level of expressed mRNA in the presence of chemical substance/The level of expressed mRNA in the absence of chemical substance (yeast gene YNL202W, cells incubated two hours with the chemical substance): 3.3
The level of expressed mRNA in the presence of chemical substance/The level of expressed mRNA in the absence of chemical substance (yeast gene YNL241C): 1.0
The level of expressed mRNA in the presence of chemical substance/The level of expressed mRNA in the absence of chemical substance (yeast gene YNL331C): 1.3
The level of expressed mRNA in the presence of chemical substance/The level of expressed mRNA in the absence of chemical substance (yeast gene YOL086C, cells incubated two hours with the chemical substance): 1.3
The level of expressed mRNA in the presence of chemical substance/The level of expressed mRNA in the absence of chemical substance (yeast gene YOL165C): 1.0
The level of expressed mRNA in the presence of chemical substance/The level of expressed mRNA in the absence of chemical substance (yeast gene YOR142W, cells incubated two hours with the chemical substance): 1.0
The level of expressed mRNA in the presence of chemical substance/The level of expressed mRNA in the absence of chemical substance (yeast gene YOR178C, cells incubated two hours with the chemical substance): 1.5
The level of expressed mRNA in the presence of chemical substance/The level of expressed mRNA in the absence of chemical substance (yeast gene YOR388C, cells incubated two hours with the chemical substance): 0.9
The level of expressed mRNA in the presence of chemical substance/The level of expressed mRNA in the absence of chemical substance (yeast gene YPL031C, cells incubated two hours with the chemical substance): 1.2
The level of expressed mRNA in the presence of chemical substance/The level of expressed mRNA in the absence of chemical substance (yeast gene YPL061W, cells incubated two hours with the chemical substance): 2.6
The level of expressed mRNA in the presence of chemical substance/The level of expressed mRNA in the absence of chemical substance (yeast gene YPL088W): 8.3
The level of expressed mRNA in the presence of chemical substance/The level of expressed mRNA in the absence of chemical substance (yeast gene YPL171C): 1.5
The level of expressed mRNA in the presence of chemical substance/The level of expressed mRNA in the absence of chemical substance (yeast gene YPL240C): 1.0
The level of expressed mRNA in the presence of chemical substance/The level of expressed mRNA in the absence of chemical substance (yeast gene YPL262W, cells incubated two hours with the chemical substance): 1.2
The level of expressed mRNA in the presence of chemical substance/The level of expressed mRNA in the absence of chemical substance (yeast gene YPL275W, cells incubated two hours with the chemical substance): 1.0
The level of expressed mRNA in the presence of chemical substance/The level of expressed mRNA in the absence of chemical substance (yeast gene YPL276W, cells incubated two hours with the chemical substance): 0.8
The level of expressed mRNA in the presence of chemical substance/The level of expressed mRNA in the absence of chemical substance (yeast gene YPR048W, cells incubated two hours with the chemical substance): 0.8
The level of expressed mRNA in the presence of chemical substance/The level of expressed mRNA in the absence of chemical substance (yeast gene YPR184W, cells incubated two hours with the chemical substance): 1.7
